Experimental data published in patent publication US9187435B2, “Bridged Spiro[2.4]heptane ester derivatives” (Actelion Pharmaceuticals Ltd., priority 2010, dated 2015).
Where a name gives a salt, the structure may show the parent alone.

What follows are molecules tested against T1, human ALX receptor (Homo sapiens, UniProt P25090) (assay: Intracellular calcium measurements (FLIPR) in HEK293-hALXR-Gα16 cells, agonistic activity). Settings: values normalized to WKYMVm 10 nM.
T1 construct: expressed in transfected cells; host or cells: HEK293 (HEK293-hALXR-Gα16)
T1 sequence (P25090 1-351): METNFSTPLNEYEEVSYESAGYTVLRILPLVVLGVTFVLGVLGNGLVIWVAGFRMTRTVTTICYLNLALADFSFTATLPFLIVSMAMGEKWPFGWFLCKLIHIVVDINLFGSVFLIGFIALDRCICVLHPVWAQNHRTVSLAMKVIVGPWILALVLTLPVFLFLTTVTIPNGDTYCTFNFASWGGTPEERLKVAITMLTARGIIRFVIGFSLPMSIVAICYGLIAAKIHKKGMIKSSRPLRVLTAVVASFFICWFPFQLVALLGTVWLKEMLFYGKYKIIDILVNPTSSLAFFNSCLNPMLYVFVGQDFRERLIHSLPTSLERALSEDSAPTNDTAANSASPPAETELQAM
Format: cell-based
Description: The ALX receptor and FPRL2 agonistic activities of the compounds of formula (I) are determined in accordance with the following experimental method.
Intracellular Calcium Measurements:
Cells expressing recombinant human ALX receptor and the G-protein Gα16 (HEK293-hALXR-Gα16) were grown to 80% confluency in Growing Medium (GM). Cells were detached from culture dishes with a cell dissociation buffer (Invitrogen, 13151-014), and collected by centrifugation at 1,000 rpm at rt for 5 min in Assay Buffer (AB) (equal parts of Hank's BSS (Gibco, 14065-049) and DMEM without Phenol Red (Gibco, 11880-028)). After 60 min incubation at 37° C. under 5% CO2 in AB supplemented with 1 μM Fluo-4 (AM) (Invitrogen, F14202), and 20 mM HEPES (Gibco, 15630-056), the cells were washed and resuspended in AB. They were then seeded onto 384-well FLIPR assay plates (Greiner, 781091) at 50,000 cells in 70 μl per well and sedimented by centrifugation at 1,000 rpm for 1 min. Stock solutions of test compounds were made up at a concentration of 10 mM in DMSO, and serially diluted in AB to concentrations required for activation dose response curves. WKYMVm (Phoenix Peptides) was used as a reference agonist. FLIPR384 or FLIPR Tetra instruments (Molecular Devices) were operated according to the manufacturer's standard instructions, adding 4 μl of test compound dissolved at 10 mM in DMSO and diluted prior to the experiment in assay buffer to obtain the desired final concentration. Changes in fluorescence were monitored before and after the addition of test compounds at lex=488 nm and lem=540 nm. Emission peak values above base level after compounds addition were exported after base line subtraction. Values were normalized to high-level control (WKYMVm compound, 10 nM final concentration) after subtraction of the base line value (AB addition).

SMILES | EC50
Cc1cc(CNC(=O)[C@H]2[C@H](C(=O)OCC3CCNCC3)[C@H]3CC[C@@H]2C32CC2)on1 [Example 52, (1S,2R,3R,4R)-[(Piperidin-4-yl)methyl 2-(((3-methylisoxazol-5-yl)methyl)carbamoyl)spiro[bicyclo[2.2.1]heptane-7,1′-cyclopropane]-3-carboxylate]] | 11.5 nM
NCc1cccc(COC(=O)[C@H]2[C@H](C(=O)Nc3ccc(Br)nc3)[C@@H]3CC[C@H]2C32CC2)c1 [Example 45, (1S,2R,3R,4R)-[3-(Aminomethyl)benzyl 2-((6-bromopyridin-3-yl)carbamoyl)spiro[bicyclo[2.2.1]heptane-7,1′-cyclopropane]-3-carboxylate]] | 9.3 nM
O=C(OCCOCCN1CCC(F)(F)C1)[C@H]1[C@H](C(=O)Nc2ccc(Br)nc2)[C@@H]2CC[C@H]1C21CC1 [Example 75, (1S,2R,3R,4R)-[2-(2-(3,3-Difluoropyrrolidin-1-yl)ethoxy)ethyl 2-((6-bromopyridin-3-yl)carbamoyl)spiro[bicyclo[2.2.1]heptane-7,1′-cyclopropane]-3-carboxylate]] | 403 nM
Cc1cc(CNC(=O)[C@H]2[C@H](C(=O)OC3CCNCC3(F)F)[C@H]3CC[C@@H]2C32CC2)on1 (stereo partly drawn) [Example 61, (1S,2R,3R,4R)-[(3,3-Difluoro-piperidin-4-yl) 2-(((3-methylisoxazol-5-yl)methyl)carbamoyl)spiro[bicyclo[2.2.1]heptane-7,1′-cyclopropane]-3-carboxylate]] | 50.1 nM
Cc1cc(CNC(=O)[C@H]2[C@H](C(=O)OCCC3(F)CCNCC3)[C@H]3CC[C@@H]2C32CC2)on1 [Example 49, (1S,2R,3R,4R)-[2-(4-Fluoro-piperidin-4-yl)ethyl 2-(((3-methylisoxazol-5-yl)methyl)carbamoyl)spiro[bicyclo[2.2.1]heptane-7,1′-cyclopropane]-3-carboxylate]] | 10.4 nM
O=C(OCCN1CCNCC1)[C@H]1[C@H](C(=O)Nc2ccc(Br)nc2)[C@@H]2CC[C@H]1C21CC1 [Example 37, (1S,2R,3R,4R)-[2-(piperazin-1-yl)ethyl 2-((6-bromopyridin-3-yl)carbamoyl)spiro[bicyclo[2.2.1]heptane-7,1′-cyclopropane]-3-carboxylate]dihydrochloride] | 1.4 nM
O=C(OC1CCNCC1)[C@H]1[C@H](C(=O)NCc2ccc(Br)cc2F)[C@@H]2CC[C@H]1C21CC1 [Example 60, (1S,2R,3R,4R)-[Piperidin-4-yl 2-((4-bromo-2-fluorobenzyl)carbamoyl)spiro[bicyclo[2.2.1]heptane-7,1′-cyclopropane]-3-carboxylate]] | 43.4 nM
O=C(OC1CCN(Cc2ccccc2)CC1)[C@H]1[C@H](C(=O)Nc2ccc(Br)nc2)[C@@H]2CC[C@H]1C21CC1 [Example 76, (1S,2R,3R,4R)-[1-Benzyl-piperidin-4-yl 2-((6-bromopyridin-3-yl)carbamoyl)spiro[bicyclo[2.2.1]heptane-7,1′-cyclopropane]-3-carboxylate]] | 2060 nM
O=C(Nc1ccc(Br)cc1)C1C(C(=O)OCC2CCNCC2)C2C=CC1C21CC1 [Example 35, (1R,4S,5R,6R)-[Piperidin-4-ylmethyl 5-((4-bromophenyl)carbamoyl)spiro[bicyclo[2.2.1]hept[2]ene-7,1′-cyclopropane]-6-carboxylate]] | 2.9 nM
O=C(O[C@@H]1CCNC1)[C@H]1[C@H](C(=O)Nc2ccc(Br)nc2)[C@@H]2CC[C@H]1C21CC1 [Example 13, (1S,2R,3R,4R)-[(R)-Pyrrolidin-3-yl 2-((6-bromopyridin-3-yl)carbamoyl)spiro[bicyclo[2.2.1]heptane-7,1′-cyclopropane]-3-carboxylate]hydrochloride] | 17.9 nM
Cc1cc(CNC(=O)[C@H]2[C@H](C(=O)OCCC3CCNCC3(F)F)[C@H]3CC[C@@H]2C32CC2)on1 (stereo partly drawn) [Example 66, (1S,2R,3R,4R)-[(3,3-Difluoro-piperidin-4-yl)ethyl 2-(((3-methylisoxazol-5-yl)methyl)carbamoyl)spiro[bicyclo[2.2.1]heptane-7,1′-cyclopropane]-3-carboxylate]] | 113 nM
CN(C)CCCOC(=O)[C@H]1[C@H](C(=O)Nc2ccc(Br)nc2)[C@@H]2CC[C@H]1C21CC1 [Example 21, (1S,2R,3R,4R)-[1-Dimethylaminoprop-3-yl 2-((6-bromopyridin-3-yl)carbamoyl)spiro[bicyclo[2.2.1]heptane-7,1′-cyclopropane]-3-carboxylate]] | 146 nM
O=C(OCCCC(F)(F)CN1CCCC1)[C@H]1[C@H](C(=O)Nc2ccc(Br)nc2)[C@@H]2CC[C@H]1C21CC1 [Example 78, (1S,2R,3R,4R)-[(4,4-Difluoro-5-(pyrrolidin-1-yl))pent-1-yl 2-((6-bromopyridin-3-yl)carbamoyl)spiro[bicyclo[2.2.1]heptane-7,1′-cyclopropane]-3-carboxylate]] | 3740 nM

More lines, now with the values ahead:

EC50 | SMILES
8.1 nM | O=C(Nc1ccc(Br)nc1)C1C(C(=O)OCC2CCNCC2)C2CCC1C21CC1 [Example 1, (1S,2R,3R,4R)-[Piperidin-4-ylmethyl 2-((6-bromopyridin-3-yl)carbamoyl)spiro[bicyclo[2.2.1]heptane-7,1′-cyclopropane]-3-carboxylate]]
270 nM | O=C(OCCC1CCNCC1(F)F)[C@H]1[C@H](C(=O)Nc2ccc(Br)nc2)[C@@H]2CC[C@H]1C21CC1 (stereo partly drawn) [Example 73, (1S,2R,3R,4R)-[2-(3,3-Difluoro-piperidin-4-yl)ethyl 2-((6-bromopyridin-3-yl)carbamoyl)spiro[bicyclo[2.2.1]heptane-7,1′-cyclopropane]-3-carboxylate]]
157 nM | O=C(OC[C@@H]1CCNC[C@H]1F)[C@H]1[C@H](C(=O)Nc2ccc(Br)nc2)[C@@H]2CC[C@H]1C21CC1 (relative stereo) [Example 70, (1S,2R,3R,4R)-[(trans-3-Fluoro-piperidin-4-yl)methyl 2-((6-bromopyridin-3-yl)carbamoyl)spiro[bicyclo[2.2.1]heptane-7,1′-cyclopropane]-3-carboxylate]]
2.2 nM | O=C(OCCOCCN1CCCC1)[C@H]1[C@H](C(=O)Nc2ccc(Br)nc2)[C@@H]2CC[C@H]1C21CC1 [Example 31, (1S,2R,3R,4R)-[2-(2-(Pyrrolidin-1-yl)ethoxy)ethyl 2-((6-bromopyridin-3-yl)carbamoyl)spiro[bicyclo[2.2.1]heptane-7,1′-cyclopropane]-3-carboxylate]]
77.5 nM | Cc1cc(CNC(=O)[C@H]2[C@H](C(=O)O[C@H]3CCNC[C@H]3F)[C@H]3CC[C@@H]2C32CC2)on1 (relative stereo) [Example 62, (1S,2R,3R,4R)-[cis-(3-Fluoro-piperidin-4-yl) 2-(((3-methylisoxazol-5-yl)methyl)carbamoyl)spiro[bicyclo[2.2.1]heptane-7,1′-cyclopropane]-3-carboxylate]]
262 nM | O=C(OCCC1CCNCC1)[C@H]1[C@H](C(=O)NCc2ccc(Br)cc2F)[C@@H]2CC[C@H]1C21CC1 [Example 72, (1S,2R,3R,4R)-[2-(Piperidin-4-yl)ethyl 2-((4-bromo-2-fluorobenzyl)carbamoyl)spiro[bicyclo[2.2.1]heptane-7,1′-cyclopropane]-3-carboxylate]hydrochloride]
79 nM | Cc1cc(CNC(=O)[C@H]2[C@H](C(=O)OCCN3CCNCC3)[C@H]3CC[C@@H]2C32CC2)no1 [Example 63, (1S,2R,3R,4R)-[2-(piperazin-1-yl)ethyl 2-(((5-methylisoxazol-3-yl)methyl)carbamoyl)spiro[bicyclo[2.2.1]heptane-7,1′-cyclopropane]-3-carboxylate]]
87.7 nM | Cc1cc(CNC(=O)[C@H]2[C@H](C(=O)OCC3CCCNC3)[C@H]3CC[C@@H]2C32CC2)no1 (stereo partly drawn) [Example 18, (1S,2R,3R,4R)-[Piperidin-3-ylmethyl 2-(((5-methylisoxazol-3-yl)methyl)carbamoyl)spiro[bicyclo[2.2.1]heptane-7,1′-cyclopropane]-3-carboxylate]hydrochloride]
33.4 nM | O=C(O[C@@H]1CCNC[C@H]1F)[C@H]1[C@H](C(=O)Nc2ccc(Br)nc2)[C@@H]2CC[C@H]1C21CC1 (relative stereo) [Example 57, (1S,2R,3R,4R)-[(trans-3-Fluoro-piperidin-4-yl) 2-((6-bromopyridin-3-yl)carbamoyl)spiro[bicyclo[2.2.1]heptane-7,1′-cyclopropane]-3-carboxylate]]
